The source of these data is publication PMC9995496, “A screen for MeCP2-TBL1 interaction inhibitors using a luminescence-based assay” (Scientific Reports, 2023).

SMILES strings stand for the structures. Where a name gives a salt, the structure may show the parent alone. Read-outs that look alike come from different tables or passages of the source. Numbered stars: 1 amine (or outer) side, 2 acyl side, 3 side chain; on linkers, the order of the positions; unused ones are H or OH. Bridge positions count the residues as written; N and C are the ends. Square brackets hold non-standard residues; d marks the D form. Peptide text beside a SMILES is read from it. * marks the point of attachment. pTerphenylCO(4''-OnC5H11) = CCCCCOc1ccc(-c2ccc(-c3ccc(C(=O)*)cc3)cc2)cc1; Orn(4R-OH,5R-OH) = O=C([C@H](C[C@@H](O)[C@@H](O)N[*:3])N[*:1])[*:2]; hTyr(3S-OH,4S-OH) = N[C@H](C(=O)O)[C@H](O)[C@@H](O)c1ccc(O)cc1; Pro(3S-OH,4S-Me) = C[C@H]1CN[C@H](C(=O)O)[C@H]1O; Hyp = O=C(O)[C@@H]1C[C@@H](O)CN1

For the assay, the system named is PRKACA-PRKAR2A interaction (SmBiT-PRKACA / LgBiT-PRKAR2A), protein kinase A. The arrangement: NanoLuc complementation counter-screen in cell extract, PRKACA with PRKAR2A, loss of luminescence, detects NanoLuc interference. Conditions: 0.5 h, 20 µM, inhibitor.
[1] abbreviates: counter-screen for NanoLuc interference.
The mark [2] stands for this setting: counter-screen for NanoLuc interference, Inh (PKA).

Regarding `CCOC(=O)[C@H](CCc1ccccc1)N[C@H]1CS[C@H](c2cccs2)CN(CC(=O)O)C1=O` [UM0142447:01, Temocapril HCl], the “Inh (PKA)” value under setting [1] came to 1.04%.
On the same count and under the same terms, in the case of `CCOc1cc2ncc(C#N)c(Nc3ccc(F)c(Cl)c3)c2cc1NC(=O)/C=C/CN(C)C` [UM0141415:01, Pelitinib (EKB-569)] it was 20%; in that of `C[C@H]1[C@H](C)CC[C@]2(C(=O)O)CC[C@]3(C)C(=CC[C@@H]4[C@@]5(C)C[C@@H](O)[C@H](O)[C@@](C)(CO)[C@@H]5CC[C@]43C)[C@H]12` [UM0142843:01, Asiatic acid], 9.304%; in that of `Cc1ccc2c(c1)c1c(n2CCc2ccc(C)nc2)CCN(C)C1` [UM0142307:01, Latrepirdine], 3.431%.
Regarding `CC(C)CC(N)=O` [UM0142364:01, Isovaleramide], under setting [1], the “Inh (PKA)” value is on record as -0.438%.
As to `C#Cc1cccc(Nc2ncnc3cc(OCCOC)c(OCCOC)cc23)c1` [UM0127944:02, Erlotinib], the “Inh (PKA)” value under setting [2] was 7.481%.
Regarding `C=CCc1ccc(O)c(-c2ccc(O)c(CC=C)c2)c1` [UM0119411:03, Honokiol], the “Inh (PKA)” value under setting [1] is reported as 48.27%.
On the same count and under the same terms, in the case of `CC(C)=CCC[C@]1(C)C=Cc2c(O)c3c(c(CC=C(C)C)c2O1)O[C@]12C(=C[C@@H]4C[C@H]1C(C)(C)O[C@@]2(C/C=C(/C)C(=O)O)C4=O)C3=O` [UM0141555:01, Gambogic Acid] it was 4.588%; in that of `CC(C)NC[C@@H](C(=O)N1CCN(c2ncnc3c2[C@H](C)C[C@H]3O)CC1)c1ccc(Cl)cc1` [UM0141496:01, GDC-0068 (RG7440)], 42.22%.
With `Nc1nc(OCc2cc(Br)cs2)c2[nH]cnc2n1` [UM0141425:01, Lomeguatrib], the “Inh (PKA)” value under setting [1] stood at 7.16%.
For `CSC(=N)N` [UM0119990:03, (S)-Methylisothiourea sulfate], the “Inh (PKA)” value under setting [1] is listed as -0.9184%.
For the compound `CCOC(=O)c1ccc(NC2CCCCC2)c(N)c1` [UM0065946:02, Ferrostatin-1 (Fer-1)], the “Inh (PKA)” value under setting [1] is listed as 10.75%.
On to `CCC(CC)(NC(=O)C(C)C)C(=O)N[C@@H](CCCN=C(N)N)C(=O)NC1(C(=O)NC(c2ccc(F)cc2)c2ccc(F)cc2)CCCC1` [UM0142313:01, MM-102], for which the “Inh (PKA)” value under setting [1] amounted to 12.23%.
On the same count and under the same terms, in the case of `CC[C@H](C)[C@H](NC(=O)[C@H]([C@@H](C)CC)N(C)C(C)=O)C(=O)N[C@H](C(=O)N[C@@H](CC(C)C)C(=O)[C@@]1(C)CO1)[C@@H](C)O` [UM0141477:01, Epoxomicin] it was 1.438%.
Still for that read-out and setting: with `CCc1cc(Nc2nccc(-c3c(-c4ccc(OC)c(C(=O)Nc5c(F)cccc5F)c4)nc4ccccn34)n2)c(OC)cc1N1CCC(N2CCN(S(C)(=O)=O)CC2)CC1` [UM0141389:01, GSK1904529A] the figure was 3.167%; with `Nc1nc(NC2CC2)cc(-c2cccc(Cl)c2Cl)n1` [UM0142662:01, TH588], 10.71%; with `CCN(CC)C(=O)/C(C#N)=C/c1cc(O)c(O)c([N+](=O)[O-])c1` [UM0141744:01, Entacapone], 34.9%.
On the same count and under the same terms, in the case of `O=C(c1ccc(/C=C/c2n[nH]c3ccccc23)cc1)N1CCNCC1` [UM0141720:01, KW 2449] it was 34.71%.
`N[C@@H](CCNCc1ccc(Cl)cc1)C(=O)N1CCCCC1` [UM0142648:01, UAMC 00039 dihydrochloride]: the “Inh (PKA)” value under setting [1] is -0.6597%.
The same measure, in the same setting: in the case of `C[C@H]1O[C@@H](O[C@H]2[C@@H](O)C[C@H](O[C@H]3[C@@H](O)C[C@H](O[C@H]4CC[C@@]5(C)[C@H](CC[C@@H]6[C@@H]5C[C@@H](O)[C@]5(C)[C@@H](C7=CC(=O)OC7)CC[C@]65O)C4)O[C@@H]3C)O[C@@H]2C)C[C@H](O)[C@@H]1O` [UM0134205:02, Digoxin] it was -2.961%; in that of `O=C(Nc1ccccc1)Nc1ccc(-c2ccc(C(=O)[C@@H]3CCC[C@H]3C(=O)O)cc2)cc1` [UM0141822:01, A922500], 32.88%; in that of `O=C(O)c1ccc(Nc2ncc3c(n2)-c2ccc(Cl)cc2C(c2c(F)cccc2F)=NC3)cc1` [UM0141711:01, MLN8054], 70.21%.
Turning to `CC(=O)Nc1nc(C)c(-c2ccc(Cl)c(S(=O)(=O)NCCO)c2)s1` [UM0141889:01, PIK-93], under setting [1], the “Inh (PKA)” value is reported as 6.642%.
`COc1cc2nccc(Oc3ccc(NC(=O)NC4CC4)c(Cl)c3)c2cc1C(N)=O` [UM0130973:02, Lenvatinib (E7080)]: under setting [1], the “Inh (PKA)” value is given as 3.422%.
Same read-out and setting: with `Cc1cn(-c2cc(NC(=O)c3ccc(C)c(Nc4nccc(-c5cnccn5)n4)c3)cc(C(F)(F)F)c2)cn1` [UM0142663:01, Radotinib(IY-5511)] the figure was 10.62%.
For the compound `O=c1cc(-c2cccc3c2Sc2ccccc2S3)oc(N2CCOCC2)c1` [UM0127803:03, KU 55933], the “Inh (PKA)” value under setting [1] is recorded as 14.3%.
As to `CCN(CC)CCOc1ccc(C(=C(Cl)c2ccccc2)c2ccccc2)cc1` [UM0132668:02, Clomiphene citrate], under setting [1], the “Inh (PKA)” value came to 14.01%.
Still for that read-out and setting: in the case of `CCCCNc1cc(C(=O)O)cc(S(N)(=O)=O)c1Oc1ccccc1` [UM0118581:03, Bumetanide] it was 2.877%; in that of `C=C[C@]1(C)C[C@@H](OC(=O)CS[C@@H]2C[C@H]3CC[C@@H](C2)N3C)[C@]2(C)[C@H](C)CC[C@]3(CCC(=O)[C@H]32)[C@@H](C)[C@@H]1O` [UM0142402:01, Retapamulin], 4.258%; in that of `CS(=O)(=O)c1ccc(-c2nnc(/C=C/c3nnc(-c4ccc(C#N)cc4)o3)n2-c2ccccc2Cl)nc1` [UM0142653:01, G007-LK], 3.502%.
For the compound `COc1ccc2[nH]c([S@@+]([O-])Cc3ncc(C)c(OC)c3C)nc2c1` [UM0142233:01, Esomeprazole Sodium], under setting [2], the “Inh (PKA)” value was 0.8501%.
As for `O=C1NC(=O)/C(=C\c2ccc3nccnc3c2)S1` [UM0141873:01, AS-605240], the “Inh (PKA)” value under setting [1] stood at 0.3149%.
Take `N#C/C(=C\c1ccc(O)c(O)c1)C(=O)NCc1ccccc1` [UM0127932:03, AG-490]: the “Inh (PKA)” value under setting [1] worked out at 36.26%.
Same read-out and setting: in the case of `NC(=O)c1ccccc1Nc1ccnc(Nc2cccc(O)c2)n1` [UM0141542:01, DB07268] it was 39.9%; in that of `COc1ccccc1N1CCN(CCN(C(=O)C2CCCCC2)c2ccccn2)CC1` [UM0134420:02, WAY-100635 maleate salt], 1.248%; in that of `COc1cc(-c2cc(-c3cccc(O)c3)cnc2N)cc(OC)c1OC` [UM0142474:01, K02288], 26.47%.
The same measure, in the same setting: with `COc1ccc(C(=O)CC2(O)C(=O)Nc3c(Cl)ccc(Cl)c32)cc1` (stereo not drawn) [UM0141653:01, YK-4-279] the figure was 4.248%; with `C[N+]1(C)[C@@H]2C[C@@H](OC(=O)[C@H](CO)c3ccccc3)C[C@H]1[C@@H]1O[C@@H]12` [UM0142326:01, Methscopolamine], 1.249%; with `COC(=O)N[C@H](C(=O)N1CCC[C@H]1c1ncc(-c2ccc(-c3ccc(-c4cnc([C@@H]5CCCN5C(=O)[C@@H](NC(=O)OC)C(C)C)[nH]4)cc3)cc2)[nH]1)C(C)C` [UM0125917:02, Daclatasvir (BMS-790052)], 3.854%.
On the same count and under the same terms, in the case of `CCN1CCN(C(=O)Cc2ccc(Nc3ncc(F)c(Nc4ccc(C(=O)Nc5ccccc5Cl)cc4)n3)cc2)CC1` [UM0141723:01, Aurora A Inhibitor I] it was 22.92%; in that of `CNC(=O)c1cc(Oc2ccc(NC(=O)c3cccc(C(F)(F)F)c3)cc2)ccn1` [UM0141965:01, SKLB610], 8.796%.
For the compound `CC(C)OC(=O)[C@H](C)N[P@](=O)(CO[C@H](C)Cn1cnc2c(N)ncnc21)Oc1ccccc1` [UM0142821:01, GS-7340], the “Inh (PKA)” value is 0.4788.
For `Cc1cc(C(C)Nc2ccccc2)c2nc(N3CCOCC3)cc(=O)n2c1` (stereo not drawn) [UM0141481:01, TGX-221], under setting [1], the “Inh (PKA)” value was 45.75%.
Same read-out and setting: with `CCn1c(N)c(C(=O)NC)c(=O)c2ccc(C#C[C@@](C)(O)COC)nc21` [UM0142483:01, SAR131675] the figure was 0.3639%.
On to `C=CC(=O)N1C/C(=C\c2ccc([N+](=O)[O-])cc2)C(=O)/C(=C/c2ccc([N+](=O)[O-])cc2)C1` [UM0139980:02, NSC 687852 (b-AP15)], for which the “Inh (PKA)” value under setting [1] is listed as 14.65%.
`Cc1ccccc1-n1c(Cn2cnc3c(N)ncnc32)nc2cccc(C)c2c1=O` [UM0141441:01, IC-87114]: the “Inh (PKA)” value under setting [1] is 5.733%.
Still for that read-out and setting: with `CCCCCCCCCCCCCC(=S)NCCCC[C@H](NC(=O)OCc1ccccc1)C(=O)Nc1ccccc1` [UM0142815:01, Thiomyristoyl] the figure was -1.991%; with `CN(C)C/C=C/C(=O)Nc1cccc(C(=O)Nc2cccc(Nc3ncc(Cl)c(-c4c[nH]c5ccccc45)n3)c2)c1` [UM0142128:01, THZ2], 74.86%; with `O=C(NOCC(O)CO)c1cc(Br)c(F)c(F)c1Nc1ccc(I)cc1F` (stereo not drawn) [UM0141903:01, PD318088], 48.65%.
`C[S+]([O-])c1ccc(-c2nc(-c3ccc(F)cc3)c(-c3ccncc3)[nH]2)cc1` (stereo not drawn) [UM0142194:01, SB 203580 hydrochloride]: under setting [2], the “Inh (PKA)” value was determined as 15.97%.
Consider `CCN(CC)CCOC(=O)C(c1ccccc1)c1ccccc1` [UM0118069:03, Adiphenine HCl], for which the “Inh (PKA)” value under setting [1] is 2.953%.
On the same count and under the same terms, with `CCCCCOc1ccc(-c2ccc(-c3ccc(C(=O)N[C@H]4C[C@@H](O)[C@@H](O)NC(=O)[C@@H]5[C@@H](O)[C@@H](C)CN5C(=O)[C@H]([C@@H](C)O)NC(=O)[C@H]([C@H](O)[C@@H](O)c5ccc(O)cc5)NC(=O)[C@@H]5C[C@@H](O)CN5C(=O)[C@H]([C@@H](C)O)NC4=O)cc3)cc2)cc1` [UM0142187:01, Anidulafungin] ({pTerphenylCO(4''-OnC5H11)}-[Orn(4R-OH,5R-OH)]T[Hyp][hTyr(3S-OH,4S-OH)]T[Pro(3S-OH,4S-Me)]; lactam 1-C) the figure was 1.476%; with `C=C1C(=O)O[C@@H]2/C=C(\C)CC/C=C(\C)CC[C@@H]12` [UM0141534:01, Costunolide], 4.671%; with `NC(=O)Nc1cc(-c2cccc(F)c2)sc1C(=O)N[C@H]1CCCNC1` [UM0139975:02, AZD7762], 35.89%.
